Here are results for 4 molecules from EPA's ToxRefDB 2.

Data set [1] relates to rat. Particulars: Prenatal developmental toxicity study; wistar; Injection; Intraperitoneal; dose end: 18 GD; group: maternal; reproductive / reproductive performance / resorptions / resorptions + reproductive / reproductive performance / reproductive performance ….
In data set [2] the test system is rat. Particulars: Prenatal developmental toxicity study; wistar; Injection; Intraperitoneal; dose end: 18 GD; group: developmental; developmental / developmental malformation / placenta / size + systemic / in life observation / body weight / fetal weight.
The subject of data set [3] is rabbit. Particulars: Prenatal developmental toxicity study, new zealand white, Injection, Intravenous, dose end: 15 GD.
Data set [4] relates to rat. The following applies: Prenatal developmental toxicity study; sprague dawley; Injection; Intraperitoneal; dose end: 20 GD; group: maternal; reproductive / reproductive performance / reproductive performance other / runts + systemic / in life observation / body weight / body ….
Data set [5] relates to dog. The following applies: Subchronic oral toxicity in nonrodent, beagle, Feed, dose end: 13 week, group: systemic.
For data set [6], the system named is mouse. The following applies: Combined chronic toxicity/carcinogenicity, cd1, Oral, Feed, dose end: 95 week, group: systemic.
Data set [7] deals with rabbit. Particulars: Prenatal developmental toxicity study, new zealand white, Oral, Gavage/Intubation, dose end: 19 GD.
In data set [8] the test system is rat. The following applies: Subchronic oral toxicity in rodents, sprague dawley, Feed, dose end: 13 week, group: systemic, systemic / hematology / leukocyte (wbc) count differential / leukocyte (wbc) + systemic / in life observation / body weight / body weight ….
Data set [9] relates to rat. Particulars: Combined chronic toxicity/carcinogenicity, sprague dawley, Oral, Feed, dose end: 104 week, group: systemic.
Data set [10] deals with rat. Particulars: Prenatal developmental toxicity study, sprague dawley, Oral, Gavage/Intubation, dose end: 15 GD.
The subject of data set [11] is dog. The following applies: Chronic toxicity; beagle; Oral; Feed; dose end: 12 month; group: systemic; systemic / hematology / erythrocyte (rbc) count differential / erythrocyte (rbc) + systemic / hematology / hematocrit (hct) / hematocrit (….
Data set [12] has as its system mouse. The following applies: Prenatal developmental toxicity study; swiss albino; Oral; Gavage/Intubation; dose end: 15 GD; group: developmental; systemic / in life observation / body weight / fetal weight.
For data set [13], the system named is rat. The following applies: Multigenerational reproductive toxicity study, sprague dawley, Oral, Gavage/Intubation, dose end: 1 generation.
Another data set deals with primate. Particulars: Subchronic oral toxicity in nonrodent, macaque, Gavage/Intubation, dose end: 90 day, group: systemic, systemic / in life observation / clinical signs / defecation (diarrhea) + systemic / in life observation / clinical signs / emesis.
Data set [14] concerns rabbit. The following applies: Prenatal developmental toxicity study; new zealand white; Oral; Gavage/Intubation; dose end: 18 GD; group: maternal; systemic / in life observation / body weight / body weight gain + systemic / in life observation / clinical signs / [other] + systemic / in ….
Setting [15] is: group: developmental, developmental / developmental malformation / bone / [other] + developmental / developmental malformation / brain / hydrocephaly + ….
[16] abbreviates: group: maternal, reproductive / reproductive performance / resorptions / resorptions.
The mark [17] stands for this setting: group: maternal, reproductive / reproductive performance / resorptions / resorptions + reproductive / offspring survival early / live fetuses / live fetuses.
The mark [18] stands for this setting: systemic / clinical chemistry / alkaline phosphatase (alp/alk) / alkaline phosphatase (alp/alk) + systemic / clinical chemistry / aspartate ….
The mark [19] stands for this setting: systemic / organ weight / heart / absolute.
The mark [20] stands for this setting: systemic / in life observation / body weight / body weight + systemic / in life observation / body weight / body weight gain + systemic / in….
[21] abbreviates: group: developmental, developmental / developmental malformation / other / other + systemic / in life observation / body weight / fetal weight + developmental / ….
Setting [22] is: group: maternal, systemic / in life observation / body weight / body weight gain + systemic / in life observation / clinical signs / no feces + systemic / in….
The mark [23] stands for this setting: group: maternal, systemic / in life observation / clinical signs / no feces + systemic / in life observation / clinical signs / soft stools.
[24] abbreviates: systemic / hematology / leukocyte (wbc) count differential / leukocyte (wbc) + systemic / pathology microscopic / liver / adenoma/carcinoma ….
The mark [25] stands for this setting: group: developmental, developmental / developmental malformation / bone / unossified.
Setting [26] is: group: developmental, developmental / developmental malformation / bone / unossified + developmental / developmental malformation / bone / incomplete ossification….
Where [27] appears, read: group: maternal, systemic / in life observation / body weight / body weight + systemic / in life observation / body weight / body weight gain + systemic / in….
The mark [28] stands for this setting: group: offspring, systemic / in life observation / body weight / offspring (pup) weight.
The mark [29] stands for this setting: group: parental, systemic / in life observation / clinical signs / [other].
[30] abbreviates: group: parental, systemic / in life observation / clinical signs / [other] + systemic / in life observation / body weight / body weight gain + systemic / in ….

A value given as a limit tells only on which side of the number the result lay.

Take `CN(Cc1cnc2nc(N)nc(N)c2n1)c1ccc(C(=O)N[C@@H](CCC(=O)O)C(=O)O)cc1` [Methotrexate]: the LEL was 0.5 mg/kg/day in the data set on rat [1]; 0.5 mg/kg/day with rat [2]; 19.2 mg/kg/day with rabbit [3] (setting [15]); 9.6 mg/kg/day in the data set with rabbit [3] (setting [16]); 0.5 mg/kg/day with rat [4]. The LOAEL in the data set on rat [1] is greater than 2 mg/kg/day; in the data set with rat [2], greater than 0.5 mg/kg/day; in the data set with rabbit [3] (setting [15]), greater than 19.2 mg/kg/day; in the data set on rabbit [3] (setting [17]), greater than 19.2 mg/kg/day; in the data set with rat [4], greater than 2 mg/kg/day. Also, the NEL in the data set with rat [1] was less than 0.5 mg/kg/day; with rat [2], less than 0.5 mg/kg/day; with rabbit [3] (setting [16]) it was 4.8 mg/kg/day; with rat [4], less than 0.5 mg/kg/day. Moreover, the NOAEL in the data set on rat [1] is no less than 2 mg/kg/day; with rat [2], no less than 0.5 mg/kg/day; with rabbit [3] (setting [15]), no less than 19.2 mg/kg/day; with rabbit [3] (setting [17]) it was no less than 19.2 mg/kg/day; with rat [4], no less than 2 mg/kg/day.

As for `CCNc1nc(Cl)nc(NCC)n1` [Simazine], the LOAEL stood at 64.3 mg/kg/day with dog [5] (setting [18]); 132 mg/kg/day in the data set with mouse [6] (systemic / in life observation / body weight / body weight + systemic / in life observation / body weight / body weight gain); 200 mg/kg/day with rabbit [7] (group: developmental, developmental / developmental malformation / other / other + systemic / in life observation / body weight / fetal weight); 75 mg/kg/day in the data set on rabbit [7] (setting [22]); 12.6 mg/kg/day in the data set on rat [8]; 4.17 mg/kg/day in the data set on rat [9] (systemic / hematology / leukocyte (wbc) count differential / leukocyte (wbc)). In addition, the LOAEL came out at 300 mg/kg/day in the data set with rat [10] (setting [26]), 300 mg/kg/day with rat [10] (setting [27]) and 3.64 mg/kg/day in the data set on dog [11]. For the same molecule, the no observed adverse effect level (NOAEL) in the data set on dog [5] (setting [18]) was 8.2 mg/kg/day; in the data set on mouse [6] (setting [20]), 5.3 mg/kg/day; in the data set with rabbit [7] (setting [21]), 75 mg/kg/day; with rabbit [7] (setting [22]), 5 mg/kg/day; in the data set with rat [8], less than 12.6 mg/kg/day; in the data set on rat [9] (setting [24]) it was 0.41 mg/kg/day. Moreover, the results for the no observed adverse effect level (NOAEL) with rat [10] (setting [26]), with rat [10] (setting [27]) and with dog [11] were 30 mg/kg/day, 30 mg/kg/day and 0.76 mg/kg/day, respectively. The LEL in the data set on dog [5] (setting [19]) is 6.9 mg/kg/day; in the data set with mouse [6] (setting [20]), 132 mg/kg/day; in the data set on rabbit [7] (setting [21]), 200 mg/kg/day; in the data set with rabbit [7] (setting [23]) it was 5 mg/kg/day; in the data set with rat [8], 12.6 mg/kg/day; with rat [9] (systemic / hematology / leukocyte (wbc) count differential / leukocyte (wbc) + systemic / in life observation / body weight / body weight …), 4.17 mg/kg/day. Besides, the results for the LEL in the data set on rat [10] (setting [25]), in the data set with rat [10] (setting [27]) and in the data set on dog [11] were 30 mg/kg/day, 300 mg/kg/day and 3.64 mg/kg/day, respectively. Further, the NEL in the data set with dog [5] (setting [19]) is less than 6.9 mg/kg/day; in the data set with mouse [6] (setting [20]), 5.3 mg/kg/day; in the data set on rabbit [7] (setting [21]) it was 75 mg/kg/day; with rabbit [7] (setting [23]) it was less than 5 mg/kg/day; with rat [8] it was less than 12.6 mg/kg/day; in the data set with rat [9] (setting [24]) it was 0.41 mg/kg/day. In addition, the NEL in the data set on rat [10] (setting [25]) was less than 30 mg/kg/day; in the data set on rat [10] (setting [27]) it was 30 mg/kg/day; with dog [11] it was 0.76 mg/kg/day.

As for `Nc1ccn([C@H]2CC[C@@H](CO)O2)c(=O)n1` [2',3'-Dideoxycytidine], in the data set on mouse [12], the LEL is 500 mg/kg/day, the lowest-observed-adverse-effect level (LOAEL) was greater than 500 mg/kg/day, the NEL stood at 200 mg/kg/day and the NOAEL is no less than 500 mg/kg/day.

In the case of `COc1ccc2c(c[n+](C)c3c4cc5c(cc4ccc23)OCO5)c1OC.C[n+]1cc2c3c(ccc2c2ccc4cc5c(cc4c21)OCO5)OCO3.[Cl-].[Cl-]` [Chelerythrine chloride mixture with sanguinarine chloride], the LEL in the data set with rat [13] (setting [28]) was 100 mg/kg/day; in the data set with rat [13] (setting [29]), 30 mg/kg/day; in the data set with primate, 10 mg/kg/day; with rabbit [14], 25 mg/kg/day. The lowest-observed-adverse-effect level (LOAEL) worked out at 100 mg/kg/day in the data set on rat [13] (setting [28]), 30 mg/kg/day with rat [13] (setting [29]), 10 mg/kg/day in the data set with primate and 25 mg/kg/day in the data set on rabbit [14]. In addition, the NEL in the data set with rat [13] (setting [28]) was 30 mg/kg/day; with rat [13] (setting [30]) it was 10 mg/kg/day; in the data set on primate, less than 10 mg/kg/day; in the data set on rabbit [14] it was 15 mg/kg/day. Moreover, the no observed adverse effect level (NOAEL) with rat [13] (setting [28]) was 30 mg/kg/day; in the data set with rat [13] (setting [30]) it was 10 mg/kg/day; in the data set on primate, less than 10 mg/kg/day; in the data set with rabbit [14], 15 mg/kg/day.

As a reminder, the LOAEL is the lowest dose or exposure tested at which an adverse effect was seen. A word on the NOAEL: it is the highest tested level that showed no adverse finding.
